# Source: ChEMBL document CHEMBL1681705, “Optimisation of ITK inhibitors through successive iterative design cycles” (Bioorg Med Chem Lett, 2011)
# Assays:
# [1] = molecular target: Serine/threonine-protein kinase SIK1 (Homo sapiens) (UniProt P57059); assay: Inhibition of SIK at 0.1 uM; values are per cent of control
# [2] = molecular target: T1, Tyrosine-protein kinase ZAP-70 (Homo sapiens) (UniProt P43403); assay: Inhibition of ZAP70 at 0.1 uM; values are per cent of control
# T1 sequence (whole entry): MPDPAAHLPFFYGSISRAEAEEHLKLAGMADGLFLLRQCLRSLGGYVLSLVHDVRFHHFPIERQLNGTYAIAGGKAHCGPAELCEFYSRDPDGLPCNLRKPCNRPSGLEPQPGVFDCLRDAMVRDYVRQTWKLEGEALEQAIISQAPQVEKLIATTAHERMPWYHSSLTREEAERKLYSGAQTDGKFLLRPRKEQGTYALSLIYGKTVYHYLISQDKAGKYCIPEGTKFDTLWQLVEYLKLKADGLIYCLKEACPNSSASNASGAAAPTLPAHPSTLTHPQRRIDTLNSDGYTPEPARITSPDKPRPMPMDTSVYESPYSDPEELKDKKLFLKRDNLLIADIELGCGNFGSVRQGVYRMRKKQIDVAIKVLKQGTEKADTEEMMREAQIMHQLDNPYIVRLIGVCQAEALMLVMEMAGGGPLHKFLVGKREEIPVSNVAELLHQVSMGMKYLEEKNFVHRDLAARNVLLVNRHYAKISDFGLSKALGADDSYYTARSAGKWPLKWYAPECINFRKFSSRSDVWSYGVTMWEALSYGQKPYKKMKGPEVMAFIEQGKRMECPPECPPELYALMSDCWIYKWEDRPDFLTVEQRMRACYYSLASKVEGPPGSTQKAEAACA
# [3] = molecular target: T2, Ephrin type-A receptor 8 (Homo sapiens) (UniProt P29322); assay: Inhibition of EphA8 at 1 uM; values are per cent of control
# T2 sequence (whole entry): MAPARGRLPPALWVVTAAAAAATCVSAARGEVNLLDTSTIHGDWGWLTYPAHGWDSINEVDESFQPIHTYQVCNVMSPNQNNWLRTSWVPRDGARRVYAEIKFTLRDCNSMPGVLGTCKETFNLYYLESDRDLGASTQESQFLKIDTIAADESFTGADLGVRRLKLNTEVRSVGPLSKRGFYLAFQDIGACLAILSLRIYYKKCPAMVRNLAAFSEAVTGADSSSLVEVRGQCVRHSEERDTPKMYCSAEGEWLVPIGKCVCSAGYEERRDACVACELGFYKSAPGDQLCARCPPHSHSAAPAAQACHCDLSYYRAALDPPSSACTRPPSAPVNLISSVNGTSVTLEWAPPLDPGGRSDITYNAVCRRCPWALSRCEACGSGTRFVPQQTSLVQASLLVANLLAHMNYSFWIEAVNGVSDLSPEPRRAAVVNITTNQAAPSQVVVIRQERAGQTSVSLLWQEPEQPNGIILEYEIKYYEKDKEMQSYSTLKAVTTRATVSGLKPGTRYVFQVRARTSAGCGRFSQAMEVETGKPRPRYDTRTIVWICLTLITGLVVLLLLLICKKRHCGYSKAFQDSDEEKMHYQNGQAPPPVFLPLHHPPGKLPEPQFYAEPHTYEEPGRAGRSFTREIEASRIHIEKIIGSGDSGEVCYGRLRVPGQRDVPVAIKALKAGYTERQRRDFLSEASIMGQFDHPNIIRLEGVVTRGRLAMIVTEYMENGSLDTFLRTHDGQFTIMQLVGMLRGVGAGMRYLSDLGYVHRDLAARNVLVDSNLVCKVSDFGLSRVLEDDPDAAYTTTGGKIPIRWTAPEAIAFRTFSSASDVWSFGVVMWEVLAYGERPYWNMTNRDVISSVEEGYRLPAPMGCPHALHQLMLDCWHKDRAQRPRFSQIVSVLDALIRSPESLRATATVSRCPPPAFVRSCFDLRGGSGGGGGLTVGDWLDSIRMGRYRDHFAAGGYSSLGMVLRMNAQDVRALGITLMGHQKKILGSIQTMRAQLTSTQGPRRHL
# [4] = molecular target: T3, Mitogen-activated protein kinase kinase kinase 7 (Homo sapiens) (UniProt O43318); assay: Inhibition of TAK1 at 0.1 uM; values are per cent of control
# T3 sequence (whole entry): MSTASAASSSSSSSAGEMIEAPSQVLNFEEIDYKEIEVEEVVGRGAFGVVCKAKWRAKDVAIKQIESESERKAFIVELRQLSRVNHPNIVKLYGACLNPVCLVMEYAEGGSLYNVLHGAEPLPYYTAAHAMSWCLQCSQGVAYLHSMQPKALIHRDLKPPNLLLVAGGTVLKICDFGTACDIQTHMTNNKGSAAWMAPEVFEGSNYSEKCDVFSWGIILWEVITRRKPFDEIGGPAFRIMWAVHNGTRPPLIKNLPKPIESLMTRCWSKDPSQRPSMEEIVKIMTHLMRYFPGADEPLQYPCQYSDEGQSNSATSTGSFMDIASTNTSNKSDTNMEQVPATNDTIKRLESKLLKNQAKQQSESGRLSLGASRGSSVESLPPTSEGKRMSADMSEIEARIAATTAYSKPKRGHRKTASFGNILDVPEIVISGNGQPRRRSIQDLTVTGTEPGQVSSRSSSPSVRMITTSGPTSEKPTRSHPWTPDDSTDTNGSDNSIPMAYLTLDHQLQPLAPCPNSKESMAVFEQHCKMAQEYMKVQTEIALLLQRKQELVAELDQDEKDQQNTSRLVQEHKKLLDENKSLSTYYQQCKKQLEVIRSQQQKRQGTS
# Serine/threonine-protein kinase SIK1 (Homo sapiens), sequence (P57059 whole entry): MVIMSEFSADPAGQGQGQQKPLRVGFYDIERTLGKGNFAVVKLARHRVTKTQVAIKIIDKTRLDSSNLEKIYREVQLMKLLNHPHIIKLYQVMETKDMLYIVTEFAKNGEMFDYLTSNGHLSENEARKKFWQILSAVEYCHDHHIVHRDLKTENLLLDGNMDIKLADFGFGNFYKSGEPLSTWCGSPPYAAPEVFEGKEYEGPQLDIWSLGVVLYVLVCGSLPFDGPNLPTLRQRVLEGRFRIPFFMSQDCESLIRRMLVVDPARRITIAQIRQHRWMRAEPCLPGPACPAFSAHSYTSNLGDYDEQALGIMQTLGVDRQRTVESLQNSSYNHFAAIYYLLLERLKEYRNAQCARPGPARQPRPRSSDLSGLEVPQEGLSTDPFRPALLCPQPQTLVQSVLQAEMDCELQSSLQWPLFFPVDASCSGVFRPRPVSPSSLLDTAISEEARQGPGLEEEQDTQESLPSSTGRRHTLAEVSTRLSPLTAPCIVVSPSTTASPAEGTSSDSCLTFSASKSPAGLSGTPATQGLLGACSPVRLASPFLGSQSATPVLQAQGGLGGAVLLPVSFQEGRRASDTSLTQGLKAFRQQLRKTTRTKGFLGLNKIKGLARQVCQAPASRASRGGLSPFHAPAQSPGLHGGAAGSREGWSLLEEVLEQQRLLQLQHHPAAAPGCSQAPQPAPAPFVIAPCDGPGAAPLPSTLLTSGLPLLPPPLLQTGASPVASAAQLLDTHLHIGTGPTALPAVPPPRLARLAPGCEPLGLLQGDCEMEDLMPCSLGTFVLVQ
residual activity [1],residual activity [2],residual activity [3],residual activity [4],Structure (SMILES)
18%,93%,57%,73%,Cc1ccc2cc(-c3n[nH]c4ccc(NC5CCNC5)cc34)[nH]c2c1 (stereo not drawn)
43%,93%,58%,84%,Cc1ccc2cc(-c3n[nH]c4ccc(NC5CCN(Cc6ccccc6)CC5)cc34)[nH]c2c1
